The text below walks through data of ChEMBL document CHEMBL2073986, “Impaired organic anion transport in kidney and choroid plexus of organic anion transporter 3 (Oat3 (Slc22a8)) knockout mice” (J Biol Chem, 2002).

Structures are written as SMILES.

The target in this series is T1, Organic anion transporter 3 (Mus musculus, UniProt O88909).
T1 sequence (O88909 whole entry): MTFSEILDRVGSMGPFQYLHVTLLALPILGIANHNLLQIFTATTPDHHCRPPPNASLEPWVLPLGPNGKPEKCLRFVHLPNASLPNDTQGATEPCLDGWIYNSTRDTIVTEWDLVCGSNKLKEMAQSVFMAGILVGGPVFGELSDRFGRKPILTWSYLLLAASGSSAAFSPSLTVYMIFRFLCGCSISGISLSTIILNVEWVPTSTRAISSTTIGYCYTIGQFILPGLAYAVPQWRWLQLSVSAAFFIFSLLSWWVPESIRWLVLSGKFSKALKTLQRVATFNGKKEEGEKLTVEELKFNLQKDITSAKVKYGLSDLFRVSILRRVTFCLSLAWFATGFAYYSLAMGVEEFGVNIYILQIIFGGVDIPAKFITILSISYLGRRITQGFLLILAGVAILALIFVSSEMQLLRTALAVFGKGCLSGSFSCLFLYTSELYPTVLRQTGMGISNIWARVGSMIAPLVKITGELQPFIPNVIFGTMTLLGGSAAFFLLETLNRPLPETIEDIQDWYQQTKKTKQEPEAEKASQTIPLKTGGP
Put plainly: TP_TRANSPORTER: uptake in Xenopus laevis oocytes. Type of series: functional, cell-based. As to conditions: oocyte.

For `Nc1ccc(C(=O)NCC(=O)O)cc1` [AMINOHIPPURIC ACID], the Activity entry was “substrate [+]”.

As to `C[C@]12CC[C@@H]3c4ccc(OS(=O)(=O)O)cc4CC[C@H]3[C@@H]1CCC2=O` [ESTRONE SULFURIC ACID], the Activity entry was “substrate [+]”.
